Source: US7763615B2, “Ecteinascidin analogs for use as antitumour agents” (priority 2001, dated 2010)
Values after ≈ are worked out from the molar mass of the structure shown. Read-outs that look alike come from different tables or passages of the source.

Tests used:
in vitro = settings: human, Caco-2
Description: The intestinal epithelium permeability is a critical characteristic that determines the rate and extent of human absorption and ultimately the bioavailability of a drug candidate. Caco-2 permeability assay allows a rapid assessment of membrane permeability and thus helps to rank-order compounds in terms of their absorption potential.
The Caco-2 cell line is a human colon adenocarcinoma cell line that differentiates in culture and resembles the epithelial lining of the human small intestine.
The apparent permeability coefficients (Papp) was determined in the apical-to-basolateral (A-to-B) direction across the cell monolayers (TC-7 sub-clone of the Caco-2) cultured on polycarbonate membrane filters. Compounds were tested at 50 μM with at a final DMSO concentration of 1%. Samples were analyzed by HPLC-MS or HPLC-MS/MS.
The test compound was added to the apical side and the Papp was determined based on the rate of appearance of the test compound in the basolateral side after 2 h-incubation. Two reference compounds, propranolol (highly permeable) and ranitidine (poorly permeable), are tested in each assay as controls.

CYP2D6 = CYP2D6 (Homo sapiens, UniProt P10635); test: in vitro; settings: CYP2D6 (% inhibition)
[1] = test system: NRK-52E, normal rat kidney cells; settings: 24 h
Protocol: (§2) In order to assess the cytotoxicity of the drugs to normal cells, we used 96 well plates plated at a density of 5000 cells per well (except for the FDC-P1 which were plated at 12,000 cells per well) with normal cell lines (ATCC, Table 1) maintained as per the directions of the ATCC: AML-12, normal mouse liver cells; NRK-52E, normal rat kidney cells; L8, normal rat skeletal muscle cells; FDC-P1, normal mouse myelogeous stem cells; and H9c2 (2-1), normal rat cardiac muscle cells. The cells in each plate were permitted to settle overnight before adding the test drug.
(§3) To each well (100 μl medium) 10 μl of drug in media was added at varying concentrations (1×10-10-0.01 mg/ml final concentration) and further incubated overnight at 37° C. with 5% CO2. After 24 h the following assays were performed. All experiments were repeated at least 3 times and were assayed in duplicate.
(§4) MTS assay (CellTiter 96 aqueous) was performed according to the manufacturer's (Promega) directions (for all cell types). Cell viability (mitochondrial activity) is determined via enzymatic conversion of the formazan substrate.

physchem [2] = settings: pH 7.4, aqueous buffer, Solubility Dulbecco's PBS pH 7.4
[3] = test system: AML-12, normal mouse liver cells; settings: 24 h
[4] = test system: FDC-P1, normal mouse myelogeous stem cells; settings: 24 h
HT29 = test: cells; assay type: cell-based; settings: Homo sapiens, HT-29, 48 h; for GI50 / IC (TGI): HT29, 48 hours exposure, SRB; for CC50: read-out: LC50, HT29, 48 hours exposure, SRB
Procedure, shortened: (§1)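 Cells plated at 5×10^3 per well; 18 h later, test samples added across 10 to 10^−8 μg/ml; incubation continued 48 h at 37° C, 5% CO2. Cells then fixed with cold TCA, stained with SRB, dye solubilised in Tris, and optical density measured at 490 nm.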

SW-620 = test: cells; assay type: cell-based; settings: Homo sapiens; for CC50: read-out: LC50
Procedure, shortened: as §1

MB231 = test: cells; assay type: cell-based; settings: Homo sapiens; for CC50: read-out: LC50; for IC (TGI): read-out: TGI
Procedure, shortened: as §1

A498 = test: cells; assay type: cell-based; settings: Homo sapiens; for CC50: A498, 48 h, read-out: LC50; for GI50 / IC (TGI): A498, 48 hours exposure, SRB
Procedure, shortened: as §1

DU145 = test: cells; assay type: cell-based; settings: Homo sapiens, DU-145, 48 h; for GI50 / IC (TGI): DU145, 48 hours exposure, SRB; for CC50: read-out: LC50, DU145, 48 hours exposure, SRB
Procedure, shortened: as §1

MEL-28 = test: cells; assay type: cell-based; settings: Homo sapiens, SK-MEL-28, 48 h; for GI50 / IC (TGI): MEL-28, 48 hours exposure, SRB; for CC50: read-out: LC50, MEL-28, 48 hours exposure, SRB
Procedure, shortened: as §1

MCF = test: cells; assay type: cell-based; settings: Homo sapiens; for CC50: read-out: LC50; for IC (TGI): read-out: TGI
Procedure, shortened: as §1

A549 = test: cells; assay type: cell-based; settings: Homo sapiens, A549, 48 h; for IC (TGI): read-out: TGI; for CC50: read-out: LC50, A549, 48 hours exposure, SRB
Procedure, shortened: as §1

(HEPG2) = settings: human, 24 h, 30 μM
[5] = test system: L8, normal rat skeletal muscle cells; settings: 24 h
[6] = s9, 60 min, 1 μM
physchem [7] = settings: pH 7.4, log D n-Octanol-Dulbecco's PBS pH 7.4
Protocol: The measurement of partition coefficient was evaluated based on a miniaturized shake-flask procedure. Buffer (Dulbecco's PBS, pH 7.40) was used as the aqueous phase. The tested compound was dissolved in DMSO, at the concentration of 100 μM. The final DMSO concentration (1%.) during the octanol-buffer partitioning are very low to avoid bias on the partitioning. The amount of compound in the buffer phase was determined by HPLC with photodiode array detection after an equilibration phase of 60 min. The amount of compound in the octanol phase is calculated by subtraction of the amount of compound in buffer from the total amount of compound, which is determined from a calibration sample.
Log D is calculated as the Log10 of the amount of compound in the octanol phase divided by the amount of compound in the buffer phase. The effective range of the log D microassay is approximately −0.5 to +4.5.

CYP3A4 = CYP3A4 (Homo sapiens, UniProt P08684); test: in vitro; settings: CYP3A4 (% inhibition)
Sequence of CYP3A4 (P08684 whole entry): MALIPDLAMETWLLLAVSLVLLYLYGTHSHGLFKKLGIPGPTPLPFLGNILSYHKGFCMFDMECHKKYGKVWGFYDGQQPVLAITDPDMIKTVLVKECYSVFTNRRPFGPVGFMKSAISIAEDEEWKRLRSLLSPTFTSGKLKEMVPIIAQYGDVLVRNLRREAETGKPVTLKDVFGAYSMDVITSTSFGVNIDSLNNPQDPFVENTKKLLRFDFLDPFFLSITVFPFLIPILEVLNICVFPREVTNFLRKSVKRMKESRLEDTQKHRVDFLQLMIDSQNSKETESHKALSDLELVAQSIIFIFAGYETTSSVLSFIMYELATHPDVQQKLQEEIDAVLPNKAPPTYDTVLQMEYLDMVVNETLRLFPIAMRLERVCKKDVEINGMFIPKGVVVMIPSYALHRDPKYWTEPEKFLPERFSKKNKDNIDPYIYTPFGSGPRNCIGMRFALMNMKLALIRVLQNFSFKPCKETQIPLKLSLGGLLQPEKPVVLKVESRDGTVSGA
Protocol: For CYP3A4 inhibition assay, the compound were tested at 10 μM in duplicate with a 0.25% final concentration of both methanol and acetonitrile in presence of the fluorescent substrate BFC (50 μM). The conversion of the BFC (7-benzyloxy-4-trifluoromethylcoumarin) in HFC (7-hydroxy-4-trifluoromethylcoumarin) was determined spectro-fluormetry after incubation with the enzyme during 30 min at 37° C.
For both assays, the fluorescent intensity measured at t=0 is subtracted from that measured after the appropriate incubation time. The ratio of signal-to-noise is calculated by comparing the fluorescence in incubations containing the test compound to the control samples containing the same solvent vehicle. The percent of control activity is calculated and reported as percent inhibition.

[8] = test system: H9c2 (2-1), normal rat cardiac muscle cells; settings: 24 h
Protocol: as §2, §3, §4

[9] = A549, 48 hours exposure, SRB, read-out: GI50
[10] = SW-620, 48 hours exposure, SRB, read-out: GI50

Sequence of CYP2D6 (P10635 whole entry): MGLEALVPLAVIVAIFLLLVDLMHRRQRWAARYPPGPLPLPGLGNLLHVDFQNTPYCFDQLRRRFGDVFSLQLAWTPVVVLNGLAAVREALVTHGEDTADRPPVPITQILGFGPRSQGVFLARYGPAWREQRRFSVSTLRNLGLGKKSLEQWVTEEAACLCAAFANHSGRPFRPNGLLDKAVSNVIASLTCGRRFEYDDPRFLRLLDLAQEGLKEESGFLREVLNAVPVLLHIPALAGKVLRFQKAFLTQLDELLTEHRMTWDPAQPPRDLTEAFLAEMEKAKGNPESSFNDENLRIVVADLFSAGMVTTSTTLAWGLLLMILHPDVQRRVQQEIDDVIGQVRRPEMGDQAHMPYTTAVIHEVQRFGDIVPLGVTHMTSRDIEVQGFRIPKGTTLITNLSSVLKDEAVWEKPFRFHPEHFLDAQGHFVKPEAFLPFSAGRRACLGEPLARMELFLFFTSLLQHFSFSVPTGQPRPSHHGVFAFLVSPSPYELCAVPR

## CNC(=C[N+](=O)[O-])NCCSCc1ccc(CN(C)C)o1 [ranitidine, reference compound]
In vitro
  Papp A→B at 2 h, 50 μM: < 5 ×10⁻⁶ cm/s

## COc1ccc2c3c([nH]c2c1)[C@@]1(CS[C@@H]2c4c(OC(C)=O)c(C)c5c(c4[C@H](COCC1=O)N1C2[C@H]2c4c(cc(C)c(OC)c4O)C[C@@H]([C@@H]1O)N2C)OCO5)NCC3 (stereo partly shown) [Compound 34]
CYP2D6
  inhibition at 450 min, 10 µM: 28%
[1]
  Kidney: 2.74E−07
In vitro
  Papp A→B at 2 h, 50 μM: 5 ×10⁻⁶ cm/s
Physchem [2]
  solubility: 17.6 µM (≈ 14.1 µg/mL)
[3]
  Liver: 2.55E−06
[4]
  Myelo: 1.15E−05
HT29
  GI50: 7.64 nM
  IC (TGI): 2.54 nM
  CC50: 11.5 nM
SW-620; SW-620, 48 h
  GI50: 10.2 nM
  CC50: 102 nM
SW-620; SW-620, 48 hours exposure, SRB
  IC (TGI): 38.2 nM
MB231; 48 h
  CC50: 127 nM
  IC (TGI): 10.2 nM
MB231; MB231, 48 hours exposure, SRB
  GI50: 3.82 nM
A498
  CC50: 63.7 nM
  GI50: 3.82 nM
  IC (TGI): 12.7 nM
DU145
  GI50: 2.55 nM
  IC (TGI): 3.82 nM
  CC50: 10.2 nM
MEL-28
  GI50: 3.82 nM
  IC (TGI): 12.7 nM
  CC50: 63.7 nM
MCF; 48 h
  CC50: 127 nM
MCF; MCF, 48 hours exposure, SRB
  GI50: 5.1 nM
  IC (TGI): 25.5 nM
A549; [9]
  GI50: 5.1 nM
A549; A549, 48 hours exposure, SRB
  IC (TGI): 25.5 nM
A549
  CC50: 89.2 nM
(HEPG2)
  Cell Viability (% inhibition): 45 % inhibition
[5]
  Skeletal: 1.48E−08
[6]
  Human Liver S9 Metabolic Stability (% remaining): 24 % remaining
Physchem [7]
  logD at 60 min: > 5
CYP3A4
  inhibition at 30 min, 10 µM: 80%
[8]
  Heart: 4.96E−07

## COc1c(C)cc2c(c1O)[C@@H]1C3[C@@H]4SC[C@]5(NCCc6c5[nH]c5ccc(O)cc65)C(=O)COC[C@@H](c5c6c(c(C)c(OC(C)=O)c54)OCO6)N3[C@@H](O)[C@H](C2)N1C (stereo partly shown) [Compound 31]
[1]
  Kidney: 4.27E−08
In vitro
  Papp A→B at 2 h, 50 μM: < 0.32 ×10⁻⁶ cm/s
Physchem [2]
  solubility: 18.3 µM (≈ 14.3 µg/mL)
[3]
  Liver: 1.89E−08
[4]
  Myelo: 3.18E−08
HT29
  GI50: 3.89 nM
  IC (TGI): 7.78 nM
  CC50: 13 nM
SW-620; SW-620, 48 h
  CC50: 11.7 nM
SW-620; SW-620, 48 hours exposure, SRB
  IC (TGI): 3.89 nM
SW-620; [10]
  GI50: 2.59 nM
MB231; 48 h
  CC50: 13 nM
MB231; MB231, 48 hours exposure, SRB
  GI50: 1.3 nM
  IC (TGI): 5.19 nM
A498
  CC50: 13 nM
  GI50: 2.59 nM
  IC (TGI): 6.49 nM
DU145
  GI50: 1.3 nM
  IC (TGI): 3.89 nM
  CC50: 9.08 nM
MEL-28
  GI50: 2.59 nM
  IC (TGI): 3.89 nM
  CC50: 10.4 nM
MCF; 48 h
  CC50: 11.7 nM
MCF; MCF, 48 hours exposure, SRB
  GI50: 2.59 nM
  IC (TGI): 5.19 nM
A549; [9]
  GI50: 2.59 nM
A549; A549, 48 hours exposure, SRB
  IC (TGI): 5.19 nM
A549
  CC50: 38.9 nM
(HEPG2)
  Cell Viability (% inhibition): 22 % inhibition
[5]
  Skeletal: 1.35E−08
[6]
  Human Liver S9 Metabolic Stability (% remaining): 17 % remaining
Physchem [7]
  logD at 60 min: 3.61
CYP3A4
  inhibition at 30 min, 10 µM: 84%
[8]
  Heart: 6.65E−08

## CC(C)NCC(O)COc1cccc2ccccc12 (stereo not shown) [propranolol, reference compound]
In vitro
  Papp A→B at 2 h, 50 μM: > 20 ×10⁻⁶ cm/s

## COc1ccc2[nH]c3c(c2c1)CCN[C@]31CS[C@@H]2c3c(OC(C)=O)c(C)c4c(c3[C@H](COCC1=O)N1C2[C@H]2c3c(cc(C)c(OC)c3O)C[C@@H]([C@@H]1O)N2C)OCO4 (stereo partly shown) [Compound 27]
CYP2D6
  inhibition at 450 min, 10 µM: 13%
[1]
  Kidney: 1.01E−08
In vitro
  Papp A→B at 2 h, 50 μM: < 1.18 ×10⁻⁶ cm/s
Physchem [2]
  solubility: 2.99 µM (≈ 2.39 µg/mL)
[3]
  Liver: 1.48E−08
[4]
  Myelo: 1.75E−08
HT29
  GI50: 0.255 nM
  IC (TGI): 0.764 nM
  CC50: 1.15 nM
SW-620; SW-620, 48 h
  CC50: 1.15 nM
SW-620; SW-620, 48 hours exposure, SRB
  IC (TGI): 0.637 nM
SW-620; [10]
  GI50: 0.255 nM
MB231; 48 h
  CC50: 12.7 nM
MB231; MB231, 48 hours exposure, SRB
  GI50: 0.255 nM
  IC (TGI): 6.37 nM
A498
  CC50: 1.27 nM
  GI50: 0.255 nM
  IC (TGI): 0.51 nM
DU145
  GI50: 0.0255 nM
  IC (TGI): 0.0892 nM
  CC50: 3.82 nM
MEL-28
  GI50: 0.255 nM
  IC (TGI): 0.637 nM
  CC50: 1.27 nM
MCF; 48 h
  CC50: 11.5 nM
  IC (TGI): 1.27 nM
MCF; MCF, 48 hours exposure, SRB
  GI50: 0.255 nM
A549; [9]
  GI50: 0.255 nM
A549; A549, 48 hours exposure, SRB
  IC (TGI): 0.892 nM
A549
  CC50: 6.37 nM
[5]
  Skeletal: 1.54E−08
[6]
  Human Liver S9 Metabolic Stability (% remaining): 7 % remaining
Physchem [7]
  logD at 60 min: > 5
CYP3A4
  inhibition at 30 min, 10 µM: 53%
[8]
  Heart: 9.93E−08

## COc1c(C)cc2c(c1O)[C@@H]1C3[C@@H]4SC[C@]5(NCCc6c5[nH]c5c(OCc7ccccc7)cccc65)C(=O)COC[C@@H](c5c6c(c(C)c(OC(C)=O)c54)OCO6)N3[C@@H](O)[C@H](C2)N1C (stereo partly shown) [Compound 28]
CYP2D6
  inhibition at 450 min, 10 µM: 34%
[1]
  Kidney: 8.37E−08
Physchem [2]
  solubility: < 1 µM
[3]
  Liver: 1.42E−07
[4]
  Myelo: 2.00E−07
HT29
  GI50: 11.6 nM
  IC (TGI): 69.7 nM
  CC50: 105 nM
SW-620; SW-620, 48 h
  CC50: 92.9 nM
SW-620; SW-620, 48 hours exposure, SRB
  IC (TGI): 23.2 nM
SW-620; [10]
  GI50: 6.97 nM
MB231; 48 h
  CC50: 116 nM
  IC (TGI): 9.29 nM
MB231; MB231, 48 hours exposure, SRB
  GI50: 3.48 nM
A498
  CC50: 58.1 nM
  GI50: 3.48 nM
  IC (TGI): 11.6 nM
DU145
  GI50: 2.32 nM
  IC (TGI): 3.48 nM
  CC50: 9.29 nM
MEL-28
  GI50: 23.2 nM
  IC (TGI): 34.8 nM
  CC50: 81.3 nM
MCF; 48 h
  CC50: 116 nM
MCF; MCF, 48 hours exposure, SRB
  GI50: 5.81 nM
  IC (TGI): 23.2 nM
A549; [9]
  GI50: 3.48 nM
A549; A549, 48 hours exposure, SRB
  IC (TGI): 46.5 nM
A549
  CC50: 34.8 nM
(HEPG2)
  Cell Viability (% inhibition): 17 % inhibition
[5]
  Skeletal: 1.45E−07
[6]
  Human Liver S9 Metabolic Stability (% remaining): 33 % remaining
Physchem [7]
  logD at 60 min: > 4.6
CYP3A4
  inhibition at 30 min, 10 µM: 79%
[8]
  Heart: 1.84E−07

## COc1c(C)cc2c(c1O)[C@@H]1C3[C@@H]4SC[C@]5(NCCc6c5[nH]c5cc(F)ccc65)C(=O)COC[C@@H](c5c6c(c(C)c(OC(C)=O)c54)OCO6)N3[C@@H](O)[C@H](C2)N1C (stereo partly shown) [Compound 32]
CYP2D6
  inhibition at 450 min, 10 µM: 12%
[1]
  Kidney: 1.45E−07
Physchem [2]
  solubility: 14.3 µM (≈ 11.2 µg/mL)
[3]
  Liver: 6.00E−07
[4]
  Myelo: 5.25E−07
HT29
  GI50: 7.76 nM
  IC (TGI): 25.9 nM
  CC50: 103 nM
SW-620; SW-620, 48 h
  CC50: 129 nM
SW-620; SW-620, 48 hours exposure, SRB
  IC (TGI): 25.9 nM
SW-620; [10]
  GI50: 5.17 nM
MB231; 48 h
  CC50: 90.6 nM
MB231; MB231, 48 hours exposure, SRB
  GI50: 2.59 nM
  IC (TGI): 9.06 nM
A498
  CC50: 51.7 nM
  GI50: 2.59 nM
  IC (TGI): 9.06 nM
DU145
  GI50: 1.29 nM
  IC (TGI): 2.59 nM
  CC50: 3.88 nM
MEL-28
  GI50: 2.59 nM
  IC (TGI): 10.3 nM
  CC50: 25.9 nM
MCF; 48 h
  CC50: 129 nM
MCF; MCF, 48 hours exposure, SRB
  GI50: 9.06 nM
  IC (TGI): 25.9 nM
A549
  GI50: 3.88 nM
  CC50: 90.6 nM
A549; A549, 48 hours exposure, SRB
  IC (TGI): 25.9 nM
(HEPG2)
  Cell Viability (% inhibition): 39 % inhibition
[5]
  Skeletal: 1.51E−08
[6]
  Human Liver S9 Metabolic Stability (% remaining): 9 % remaining
Physchem [7]
  logD at 60 min: > 4.3
CYP3A4
  inhibition at 30 min, 10 µM: 83%
[8]
  Heart: 2.42E−07
